Experimental data reported in patent US6673778B1, “Enzyme inhibitors for metabolic redirection” (The Board of Regents of the University of Nebraska, priority 1996, dated 2004).
Marks after values point to notes of the source that are not given here.

Experiments:
[1] = test system: CYP2B1 mRNA; experiment: Melting temperature (Tm) of ODNs used in Example 1; format: physicochemical, rat
Text: The oligo 2B1-ATG (SEQ ID NO: 16) is a 22-mer having 100% complementarity to a region containing the AUG start codon on the rat CYP2B1 mRNA (SEQ ID NO: 39, shown below Table). The oligo 2B1-NRM (SEQ ID NO: 17) has 100% complementarity to the CYP2B1 mRNA starting at base 855. The oligo 2B1-BPB (SEQ ID NO: 36) has the sequence of 2B1-NRM with a two base deletion (indicated in bold in the 2B1-NRM sequence). Each of the oligos 2B1-3MM (SEQ ID NO: 37) and 2B1-CMM (SEQ ID NO: 38) has 2 bases reversed (indicated in bold) compared to the BPB sequence. […] The table gives the melting temperature (Tm), molecular weight, and % homology to CYP2B1 mRNA of each sequence.

[2] = test system: rat CYP2B1; experiment: Hexobarbital sleep time in rats; format: in vivo
Description: Male Sprague-Dawley rats (Sasco, Omaha) weighing between 210 to 290 grams were used for all studies. They were housed in animal quarters at the University of Nebraska Medical Center AAALAC-approved Animal Resource Facility. The animals were exposed to 12 hour light/dark cycle and fed Purina rat chow and tap water ad libitum.
(§1) Rats were injected intraperitoneally (i.p.) with the indicated ODNs (see Table 3) once per day for 2 days, in an amount of lmg/kg body weight per injection. Control rats were injected with saline only. Rats in the “PB” groups were injected i.p. with phenobarbital (Mallinckrodt, St. Louis) at 80 mg/kg body weight per injection, once per day for 2 days. In the groups in which PB was co-administered with ODN, injections were administered simultaneously. Total volume of injections for all groups was […]. Animals in the “2B1-NRM+PB+PRETREATMENT” group also received a dose of 1 mg/kg of 2B1-NRM oligomer (SEQ ID NO: 17) 24 hours prior to the first administration of 2B1-NRM plus PB.
Forty-eight hours following the first (non-pretreatment) injection of ODN and/or PB, the rats were injected i.p. with 100 mg/kg body weight hexobarbital (Sigma, St. Louis), in a total volume of 1 ml/kg body weight, prepared fresh daily. Sleep time, defined as the time period from when the rat is placed on its back to when it regains its righting reflex, was measured. Sleep times are given in Table 5 as the mean of each animal in the group ±standard deviation.

[3] = test system: CYP2B1; experiment: PROD assay of liver microsomes (CYP2B1 enzyme activity); format: in vivo, rat; details: ODN alone
Description: Control rats were injected with saline only.
CYP2B1 enzyme activity was determined by pentoxyresorufin O-dealkylation (PROD) activity (Burke et al., 1985). For each microsomal sample, 1 mg protein in 1 ml 0.1 M potassium phosphate buffer, 1 ml 2 μM 5-pentoxyresorufin (Pierce, Rockford, Ill.), and 17 μl 60 mM NADPH were mixed and incubated for 10 minutes at 37° C. The mixture was then added to a 2 ml cuvette and read on a RF5000U spectrofluorophotometer (Shimadzu, Columbia, Md.), using an excitation wavelength of 530 nm and emission wavelength of 585 nm. Concentrations were calculated from a calibration curve of resorufin standards (Pierce, Rockford, Ill.). Results were recorded in nmol resorufin/mg protein/min.

[4] = test system: CYP2B1 protein; experiment: ELISA for CYP2B1 protein in liver microsomes; details: for HRP activity (CYP2B1 ELISA): liver microsomes
Description: as §1
Microsomes were prepared, as described by Franklin and Estabrook (Arch. Biochem. Biophys. 143:318-29, 1971), for determination of enzyme level and activity. The rats were sacrificed using ethyl ether, and livers were perfused with 12 ml of 4% saline via the portal vein and then removed from the animal. The livers were minced, homogenized in 0.25 M sucrose (Sigma) and centrifuged at 8000×G for 20 minutes at 4° C. in a Sorvall RC2-B centrifuge (Dupont). The supernatant was saved, resuspended in 0.25 M sucrose, and centrifuged at 100,000×G for 45 minutes at 4° C. in a Sorvall OTD55B ultracentrifuge (Dupont). The pellet was resuspended in 1.15% KCl (Sigma) and centrifuged at 100,000×G for 1 hour at 4° C. The final pellet was resuspended in an equal volume buffer (10 mM Tris-acetate, 1 mM EDTA, 20% glycerol; Sigma) and frozen at −80° C.
Direct measurement of CYP2B1 protein was performed by an ELISA assay, using an antibody directed to the CYP2B1 protein (Schuurs and Van Weeman, Clin Chim Acta 81(1):1-40, 1977). Fifty μg of microsomal proteins per well were plated in 100 μl 0.35% sodium bicarbonate buffer overnight on a 96 well nunc-immuno plate (InterMed, Skokie, Ill.). The microsomes were washed 3× with 1% bovine serum albumin in PBS (PBS/BSA) and incubated for 1 hr at 37° C. with 200 μl PBS/BSA. The PBS/BSA was removed, and 50 μl of CYP2B1 antibody (Oxygene, Dallas) was added and incubated for 1 hour at 37° C. The microsomes were washed 5× with saline/Tween 20™ (Sigma), and 50 μl horseradish peroxidase (HRP)-conjugated secondary antibody (Bio-Rad) was added. The microsomes were incubated for 1 hour at 37° C., then washed 5× with saline/Tween 20™ and twice with 85% saline. HRP substrate (Kirkegaard & Perry Labs, Gaithersburg, Md.) (100 μl) was added, and the absorbance at 405 nm was read continuously in a microplate reader (Molecular Devices) for 1 hour. Results were recorded as HRP activity in mOD/min.

[5] = test system: CYP2E1; experiment: Microsomal PNP (p-nitrophenol hydroxylase) activity; format: in vivo, rat; details: liver microsomes
Description: Microsomal PNP (p-nitrophenol hydroxylase) activity was used as a measure of induction of CYP2E1, as PB is known to induce many different CYPs, including CYP2E1. CYP2E1 activity was determined by PNP activity as described in Reinke and Moyer, Drug Metab. Dispos. 13:548-52, 1985; Koop, Mol. Phannacol. 29:399404, 1986). Activity was recorded as optical density (OD) per milligram of protein per minute.

[6] = ODN + PB 80 mg/kg injected simultaneously, 2 days, hexobarbital 100 mg/kg i.p.
[7] = treatment alone (ODN 1 mg/kg or PB 80 mg/kg i.p. once per day for 2 days), hexobarbital 100 mg/kg i.p. at 48 h

Row | Molecule | Tm [1] | Sleep time, Percent of Control ([2]; ODN + PB) | Sleep Time (min ± sd) [2, 6] | Effect on hexobarbital sleep time (in words) ([2]; ODN + PB, versus PB group) | Effect on hexobarbital sleep time (in words) ([2]; ODN alone, versus control) | Sleep time, Percent of Control ([2]; treatment alone) | Sleep Time (min ± sd) [2, 7] | PROD activity versus control (in words) [3] | HRP activity versus PB-alone group (in words) ([4]; ODN + PB) | HRP activity (CYP2B1 ELISA) ([4]; ODN + PB) | HRP activity (CYP2B1 ELISA) ([4]; treatment alone) | HRP activity versus control (in words) ([4]; treatment alone) | PNP activity versus control (in words) ([5]; ODN + PB) | PNP activity versus control (in words) ([5]; treatment alone) | also measured
1 | 2B1-ATG (antisense GGAGCAAGATACTGGGCTCCAT; chemistry not given here) | 68.0 °C | 82.5% of Control | 19.3 ± 4.4^b min | sleep time increased significantly over that of the PB group | did not significantly alter sleep time over control | 87.6% of Control | 20.5 ± 5.3 min | no change from control | a significant decrease in HRP activity over the PB-alone group | 12.9 ± 5.0 mOD/min | 13.2 ± 4.4 mOD/min | no change in HRP activity over control microsomes | significant increases in PNP activities over that of control | no significant differences in PNP activities from control values | –
2 | 2B1-3MM (antisense AAAGAAGAGAGAGCAGGGGA; chemistry not given here) | 49.8 °C | – | – | – | slightly lengthened sleep time over the control | 132.4% of Control | 31.0 ± 9.6 min | no change from control | – | – | 9.2 ± 5.0 mOD/min | no change in HRP activity over control microsomes | – | no significant differences in PNP activities from control values | –
3 | 2B1-NRM (antisense AAAGAAGAGAGAGAGCAGGGAG; chemistry not given here) | 50.6 °C | 57.7% of Control | 13.5 ± 0.9 min | no observable antisense effect | no effect on sleep time compared to control | 98.2% of Control | 23.0 ± 3.2 min | no change from control | a decrease in HRP activity over that of the PB-alone treatment group | 17.9 ± 4.6 mOD/min | 13.8 ± 5.6 mOD/min | no change in HRP activity over control microsomes | significant increases in PNP activities over that of control | no significant differences in PNP activities from control values | Effect on hexobarbital sleep time (in words) ([2]; ODN pretreatment + PB): essentially the same as without pretreatment; Sleep time, Percent of Control ([2]; ODN pretreatment + PB): 56.8% of Control; Sleep Time (min ± sd) ([2]; ODN pretreatment one day before ODN + PB, 2 days, hexobarbital 100 mg/kg i.p.): 13.3 ± 3.0 min; HRP activity versus PB-alone group (in words) ([4]; ODN + PB + pretreatment): a decrease in HRP activity over that of the PB-alone treatment group; HRP activity (CYP2B1 ELISA) ([4]; ODN + PB/Pretreatment): 18.7 ± 0.3 mOD/min; PNP activity versus control (in words) ([5]; ODN + PB + pretreatment): significant increases in PNP activities over that of control
4 | 2B1-CMM (antisense AAAGAAGAGAAGGCAGGGAG; chemistry not given here) | 49.5 °C | – | – | – | did not significantly alter HB sleep time from the control | 98.2% of Control | 23.0 ± 5.3 min | no change from control | – | – | 10.1 ± 3.3 mOD/min | no change in HRP activity over control microsomes | – | no significant differences in PNP activities from control values | –
5 | CCC1(c2ccccc2)C(=O)NC(=O)NC1=O [Phenobarbital (PB), phenobarbital, reference compound] | – | – | – | – | – | 48.7% of Control | 11.4 ± 4.5^a min | – | – | – | 22.5 ± 4.2 mOD/min | significantly greater than the activity of microsomes from control rats | – | significant increases in PNP activities over that of control | Sleep Time (min ± sd) ([2]; treatment alone (ODN 1 mg/kg or PB 80 mg/kg i.p. once per day for 2 days), hexobarbital 100 mg/kg i.p. at 48 h, listed as PB): about 11.4 min
